Measured values as given in patent publication US20240082162A1, “PHARMACEUTICAL FORMULATIONS OF PILOCARPINE R-(+)-LIPOATE” (Cellix Bio Private Limited, priority 2020, published 2024).
Where “and” joins values, the source holds several entries; their conditions need not be identical. Equal values may be shown once. Where a name gives a salt, the structure may show the parent alone.

Test system: A-253 human salivary gland cell line
Assay: iROS assay (DCFH-DA), H2O2-induced oxidative stress in A-253 cells
Type: cell-based
Conditions: for iROS assay - normalised data vs H2O2, Average / iROS assay - normalised data vs H2O2 (single values) / iROS assay - normalized data, Average / iROS assay - normalized data (single values): H2O2(1 mM), 24 hours; for iROS assay - normalised data vs H2O2, Average / iROS assay - normalised data vs H2O2 (single values): H2O2 alone = 1; for iROS assay - normalized data, Average / iROS assay - normalized data (single values): unstimulated cells = 1; for Effect on iROS induced by H2O2 (in words): A-253 cells, 3-1000 μM
Experimental: Objective: The objective of this study was to investigate the effect of the test compound (CLX 156), on H2O2-induced oxidative stress in human submaxillary gland (HSG) cell line; A-253 cell line, in comparison with pilocarpine hydrochloride. Method: A-253 human salivary gland cell line was cultured in McCoy's 5a Medium Modified (ATCC) with 10% HI-FBS according to manufacturer's guidelines at 37° C. in the presence of 5% CO 2 in a humified incubator. The cells were sub-cultured using Trypsin-EDTA and 10,000 cells seeded into each 48 well cell culture plates with a media volume of 500 μl. The cells were allowed to grow for 48 hours. After 48 hours of culture, the cells were pre-incubated for 1 hour with the positive, reference and test compounds at the desired concentrations (see table 1) followed by the addition of 1 mM H2O2 to the culture media (without the removal of test compounds) to induce oxidative stress. The incubation was continued for 24 hours. After 24 hours of treatment with H2O2, the cells were used to assess iROS as described below. This is a cell-based assay for measuring hydroxyl, peroxyl, or other reactive oxygen species activity within a cell. The assay employs the cell-permeable fluorogenic probe 2′, 7′-Dichlorodihydrofluorescin diacetate (DCFH-DA). In brief, DCFH-DA is diffused into cells and is deacetylated by cellular esterases to non-fluorescent 2′,7′-Dichlorodihydrofluorescin (DCFH), which is rapidly oxidized to highly fluorescent 2′,7′-Dichlorodihydrofluorescein (DCF) by ROS. The fluorescence intensity is proportional to the ROS levels within the cell cytosol. OxiSelect˜ Intracellular ROS Assay Kit was used according to the manufacturer's guidelines (Cell Biolabs). In short, at Day 3 the cells were washed several times with PBS and then treated with 1X DCFH-DA in media and incubated for 30-60 minutes. After DCFH-DA treatment, the oxidative stress was induced by adding 1 mM H2O2 and the fluorescence signals measured after 24 hours using a plate reader.

Row | SMILES | iROS assay - normalised data vs H2O2, Average (3 μM) | iROS assay - normalized data, Average (3 μM) | iROS assay - normalised data vs H2O2, Average (10 μM) | iROS assay - normalized data, Average (10 μM) | iROS assay - normalised data vs H2O2, Average (30 μM) | iROS assay - normalized data, Average (30 μM) | iROS assay - normalised data vs H2O2, Average (100 μM) | iROS assay - normalized data, Average (100 μM) | iROS assay - normalised data vs H2O2, Average (300 μM) | iROS assay - normalized data, Average (300 μM) | iROS assay - normalised data vs H2O2, Average (1000 μM) | iROS assay - normalized data, Average (1000 μM) | Effect on iROS induced by H2O2 (in words) | further results
1 | CC[C@@H]1C(=O)OC[C@@H]1Cc1cncn1C [Pilocarpine HCl, pilocarpine hydrochloride, reference compound] | 1.0401 | 7.8631 | 0.9018 | 6.8174 | 0.8952 | 6.7676 | 0.9226 | 6.9751 | 0.9265 | 7.0041 | 0.9040 | 6.8340 | comparatively less in magnitude and showed no clear dose response | iROS assay - normalised data vs H2O2 (single values) (3 μM, hydrochloride): 0.9995 and 1.0274 and 1.0933; iROS assay - normalized data (single values) (3 μM, hydrochloride): 7.5560 and 7.7676 and 8.2656; iROS assay - normalised data vs H2O2 (single values) (10 μM, hydrochloride): 0.8825 and 0.8760 and 0.9468; iROS assay - normalized data (single values) (10 μM, hydrochloride): 6.6722 and 6.6224 and 7.1577; iROS assay - normalised data vs H2O2 (single values) (30 μM, hydrochloride): 0.8941 and 0.8332 and 0.9583; iROS assay - normalized data (single values) (30 μM, hydrochloride): 6.7593 and 6.2988 and 7.2448; iROS assay - normalised data vs H2O2 (single values) (100 μM, hydrochloride): 0.9550 and 0.9336 and 0.8793; iROS assay - normalized data (single values) (100 μM, hydrochloride): 7.2199 and 7.0581 and 6.6473; iROS assay - normalised data vs H2O2 (single values) (300 μM, hydrochloride): 0.9040 and 0.8858 and 0.9896; iROS assay - normalized data (single values) (300 μM, hydrochloride): 6.8340 and 6.6971 and 7.4813; iROS assay - normalised data vs H2O2 (single values) (1000 μM, hydrochloride): 0.8924 and 0.8842 and 0.9352; iROS assay - normalized data (single values) (1000 μM, hydrochloride): 6.7469 and 6.6846 and 7.0705
2 | CC[C@@H]1C(=O)OC[C@@H]1Cc1cncn1C.O=C(O)CCCC[C@@H]1CCSS1 [CLX 156, Pilocarpine-R-(+)-lipoate] | 0.8035 | 6.0747 | 0.7206 | 5.4481 | 0.7536 | 5.6971 | 0.7541 | 5.7012 | 0.6581 | 4.9751 | 0.4638 | 3.5062 | significantly inhibited the iROS induced by H2O2 in A-253 cells in a concentration dependent manner | iROS assay - normalised data vs H2O2 (single values) (3 μM): 0.8216 and 0.8019 and 0.7870; iROS assay - normalized data (single values) (3 μM): 6.2116 and 6.0622 and 5.9502; iROS assay - normalised data vs H2O2 (single values) (10 μM): 0.7047 and 0.6981 and 0.7591; iROS assay - normalized data (single values) (10 μM): 5.3278 and 5.2780 and 5.7386; iROS assay - normalised data vs H2O2 (single values) (30 μM): 0.7294 and 0.7558 and 0.7755; iROS assay - normalized data (single values) (30 μM): 5.5145 and 5.7137 and 5.8631; iROS assay - normalised data vs H2O2 (single values) (100 μM): 0.7887 and 0.7377 and 0.7360; iROS assay - normalized data (single values) (100 μM): 5.9627 and 5.5768 and 5.5643; iROS assay - normalised data vs H2O2 (single values) (300 μM): 0.6224 and 0.6965 and 0.6553; iROS assay - normalized data (single values) (300 μM): 4.7054 and 5.2656 and 4.9544; iROS assay - normalised data vs H2O2 (single values) (1000 μM): 0.4676 and 0.4396 and 0.4841; iROS assay - normalized data (single values) (1000 μM): 3.5353 and 3.3237 and 3.6598; Inhibition of iROS compared with Pilocarpine HCL (in words) (A-253 salivary gland cell culture model): superior to Pilocarpine HCL in inhibiting the iROS induced by H2O2; IC50 (H2O2-induced iROS in A-253 cells, read-out: IC50 for Intracellular ROS (iROS) inhibition): 552 µM
